The test system of this test is CAL51 cell proliferation. Put plainly: Cell Titer Glo Proliferation Assay (CAL51). As to conditions: Homo sapiens, CAL-51; CAL51 cell proliferation, 72 h, Cell Titer Glo luminescence; read-out: Act. Level. Type of test: cell-based, human. As for the experimental part: Cell Titer Glo Proliferation Assay. Triple negative breast cancer cell line CAL51 was purchased from DSMZ. […] Allcell lines were maintained in growth media consisting of 90% high glucose Dulbecco's Modified Eagle Medium or RPMI1640 (Invitrogen), 10% fetal bovine serum (Hyclone), and 2 mM L-glutamine (Invitrogen). […] After overnight culture, compound stock (30 mM) was diluted serially in DMSO, further diluted in growth media, and was added to each well as a 10× concentrated solution in a volume of 11 μL, mixed, and allowed to incubate with cells. The compound vehicle (DMSO) was maintained at a final concentration of 0.2% in all wells. After 72 h, 100 μL of Cell Titer Glo solution (Promega) was added to each well of the 96-well plate. The plate was placed on a shaker for 2 minutes. After 10 minutes incubation, the luminescence signal was detected with Envision microplate reader (Perkin Elmer).

The source of these data is patent US9346812B2, “Substituted pyrrolopyrimidine compounds, compositions thereof, and methods of treatment therewith” (Signal Pharmaceutical LLC, priority 2013, dated 2016).

Take `COc1cc(C(=O)NCC2COC2)ccc1Nc1nc(OC2CCCC2)c2c(-c3ccc4nc(C)oc4c3)c[nH]c2n1` [Example 282, 4-(4-(cyclopentyloxy)-5-(2-methylbenzo[d]oxazol-6-yl)-7H-pyrrolo[2,3-d]pyrimidin-2-ylamino)-3-methoxy-N-(oxetan-3-ylmethyl)benzamide]: the IC50 lay within 100 to 400 nM. As to `COc1cc(NC(C)=O)ccc1Nc1nc(OC2CCCC2)c2c(-c3ccc4nc(C)oc4c3)c[nH]c2n1` [Example 247, N-(4-(4-(cyclopentyloxy)-5-(2-methylbenzo[d]oxazol-6-yl)-7H-pyrrolo[2,3-d]pyrimidin-2-ylamino)-3-methoxyphenyl) acetamide], the IC50 fell in the range of 100 to 400 nM. The same measure for `CNC(=O)c1ccc(Nc2nc(OC3CCCC3)c3c(-c4ccc5nn[nH]c5c4)c[nH]c3n2)c(OC)c1` [Example 27, 4-(5-(1H-benzo[d][1,2,3]triazol-6-yl)-4-(cyclopentyloxy)-7H-pyrrolo [2,3-d]pyrimidin-2-ylamino)-3-methoxy-N-methylbenzamide]: below 100 nM. Regarding `CNC(=O)c1ccc(Nc2nc(OC3CCOCC3)c3c(-c4ccc5nc(C(C)C)oc5c4)c[nH]c3n2)c(OC)c1` [Example 170, 4-(5-(2-isopropylbenzo[d]oxazol-6-yl)-4-(tetrahydro-2H-pyran-4-yloxy)-7H-pyrrolo[2,3-d]pyrimidin-2-ylamino)-3-methoxy-N-methylbenzamide], the IC50 is 100 to 400 nM. With `CNC(=O)c1ccc(Nc2nc(OC3CCOCC3)c3c(-c4nnco4)c[nH]c3n2)c(OC)c1` [Example 174, 4-(5-(1,3,4-oxadiazol-2-yl)-4-(tetrahydro-2H-pyran-4-yloxy)-7H-pyrrolo[2,3-d]pyrimidin-2-ylamino)-3-methoxy-N-methylbenzamide], the IC50 is 400 to 1000 nM.

`CNC(=O)c1ccc(Nc2nc(OC3CCOCC3)c3c(-c4ccnc(N)c4)c[nH]c3n2)c(OC)c1` [Example 142, 4-(5-(2-aminopyridin-4-yl)-4-(tetra-hydro-2H-pyran-4-yloxy)-7H-pyrrolo[2,3-d]pyrimidin-2-ylamino)-3-methoxy-N-methylbenzamide]: the IC50 is below 100 nM. The same measure for `CNC(=O)c1ccc(Nc2nc(OC3CCOCC3)c3c(-c4cnn(C)c4)c[nH]c3n2)c(OC)c1` [Example 184, 3-methoxy-N-methyl-4-(5-(1-methyl-1H-pyrazol-4-yl)-4-(tetrahydro-2H-pyran-4-yloxy)-7H-pyrrolo[2,3-d]pyrimidin-2-ylamino)benzamide]: below 100 nM. `Cc1nc2ccc(-c3c[nH]c4nc(Nc5ccc(C(=O)N(C)C)cc5C)nc(O[C@H]5CCCOC5)c34)cc2o1` [Example 104, (S)-N,N,3-trimethyl-4-(5-(2-methylbenzo[d]oxazol-6-yl)-4-(tetrahydro-2H-pyran-3-yloxy)-7H-pyrrolo[2,3-d]pyrimidin-2-ylamino)benzamide]: the IC50 was below 100 nM. The same measure for `CNC(=O)c1ccc(Nc2nc(OC3CCCC3)c3c(-c4cccc(OC)c4)c[nH]c3n2)c(OC)c1` [Example 60, 4-(4-(cyclopentyloxy)-5-(3-methoxyphenyl)-7H-pyrrolo[2,3-d]pyrimidin-2-ylamino)-3-methoxy-N-methylbenzamide]: 100 to 400 nM; for `Cc1cc(C(=O)N(C)C)ccc1Nc1nc(OC2CCOCC2)c2c(-c3ccc4nc(N)[nH]c4c3)c[nH]c2n1` [Example 116, 4-(5-(2-amino-1H-benzo[d]imidazol-6-yl)-4-(tetrahydro-2H-pyran-4-yloxy)-7H-pyrrolo[2,3-d]pyrimidin-2-ylamino)-N,N,3-trimethylbenzamide]: below 100 nM; for `CNC(=O)c1ccc(Nc2nc(O[C@H]3CC[C@@](C)(O)CC3)c3c(-c4ccc5nc(C)oc5c4)c[nH]c3n2)c(OC)c1` [Example 206, 4-(4-((1s,4s)-4-hydroxy-4-methylcyclohexyloxy)-5-(2-methylbenzo[d]oxazol-6-yl)-7H-pyrrolo[2,3-d]pyrimidin-2-ylamino)-3-methoxy-N-methylbenzamide]: below 100 nM. As for `COc1cc(C(=O)NCCO)ccc1Nc1nc(OC(C)C)c2c(-c3ccc4nc(C)oc4c3)c[nH]c2n1` [Example 160, N-(2-hydroxyethyl)-4-(4-isopropoxy-5-(2-methylbenzo[d]oxazol-6-yl)-7H-pyrrolo[2,3-d]pyrimidin-2-ylamino)-3-methoxybenzamide], the figure is below 100 nM; as for `CNC(=O)c1ccc(Nc2nc(OC3CCCC3)c3c(-c4ccc(-c5nnc[nH]5)cc4)c[nH]c3n2)c(OC)c1` [Example 28, 4-(5-(4-(4H-1,2,4-triazol-3-yl)phenyl)-4-(cyclopentyloxy)-7H-pyrrolo[2,3-d]pyrimidin-2-ylamino)-3-methoxy-N-methylbenzamide], below 100 nM; as for `CNC(=O)c1ccc(Nc2nc(OC)c3c(-c4cnn(C)c4)c[nH]c3n2)c(OC)c1` [Example 177, 3-methoxy-4-(4-methoxy-5-(1-methyl-1H-pyrazol-4-yl)-7H-pyrrolo [2,3-d]pyrimidin-2-ylamino)-N-methylbenzamide], 100 to 400 nM. The same measure for `CNC(=O)c1ccc(-c2c[nH]c3nc(Nc4ccc(C(=O)N(C)C)cc4C)nc(OC4CCOCC4)c23)cn1` [Example 159, 5-(2-(4-(dimethylcarbamoyl)-2-methylphenylamino)-4-(tetrahydro-2H-pyran-4-yloxy)-7H-pyrrolo[2,3-d]pyrimidin-5-yl)-N-methylpicolinamide]: below 100 nM; for `CNC(=O)c1ccc(Nc2nc(OC3CCOCC3)c3c(-c4ccnc(OC)c4)c[nH]c3n2)c(OC)c1` [Example 143, 3-methoxy-4-(5-(2-methoxypyridin-4-yl)-4-(tetrahydro-2H-pyran-4-yloxy)-7H-pyrrolo[2,3-d]pyrimidin-2-ylamino)-N-methylbenzamide]: below 100 nM. As to `COc1cc(C(=O)NC2CCCC2)ccc1Nc1nc(OC2CCCC2)c2c(-c3ccc4nc(C)oc4c3)c[nH]c2n1` [Example 229, N-cyclopentyl-4-(4-(cyclopentyl-oxy)-5-(2-methylbenzo[d]oxazol-6-yl)-7H-pyrrolo[2,3-d]pyrimidin-2-ylamino)-3-methoxybenzamide], the IC50 was 400 to 1000 nM. On to `CNC(=O)c1ccc(Nc2nc(OC3CCCC3)c3c(-c4ccc5[nH]ccc5c4)c[nH]c3n2)c(OC)c1` [Example 81, 4-(4-(cyclopentyloxy)-5-(1H-indol-5-yl)-7H-pyrrolo[2,3-d]pyrimidin-2-ylamino)-3-methoxy-N-methylbenzamide], for which the IC50 was in the range of 400 to 1000 nM. `CNC(=O)c1ccc(Nc2nc(OC(C)C)c3c(-c4ccnc(C)c4)c[nH]c3n2)c(OC)c1` [Example 201, 4-(4-isopropoxy-5-(2-methyl-pyridin-4-yl)-7H-pyrrolo[2,3-d]pyrimidin-2-ylamino)-3-methoxy-N-methylbenzamide]: the IC50 was below 100 nM. For the compound `CNC(=O)c1ccc(Nc2nc(OC3CCOCC3)c3c(-c4ncco4)c[nH]c3n2)c(OC)c1` [Example 173, 3-methoxy-N-methyl-4-(5-(oxazol-2-yl)-4-(tetrahydro-2H-pyran-4-yloxy)-7H-pyrrolo[2,3-d]pyrimidin-2-ylamino)benzamide], the IC50 fell in the range of 400 to 1000 nM. As for `Cc1cc(C(=O)N(C)C)ccc1Nc1nc(OC2CCOCC2)c2c(-c3cccc(S(C)(=O)=O)c3)c[nH]c2n1` [Example 105, N,N,3-trimethyl-4-(5-(3-(methylsulfonyl)phenyl)-4-(tetrahydro-2H-pyran-4-yloxy)-7H-pyrrolo[2,3-d]pyrimidin-2-ylamino)benzamide], the figure is below 100 nM; as for `COc1cc(C(=O)NCCF)ccc1Nc1nc(OC2CCCC2)c2c(-c3ccc4nc(C)oc4c3)c[nH]c2n1` [Example 256, 4-(4-(cyclopentyloxy)-5-(2-methylbenzo[d]oxazol-6-yl)-7H-pyrrolo[2,3-d]pyrimidin-2-ylamino)-N-(2-fluoroethyl)-3-methoxybenzamide], 100 to 400 nM. As for `CNC(=O)c1ccc(Nc2nc(O[C@H]3CC[C@](C)(O)CC3)c3c(-c4ccc5nc(C)oc5c4)c[nH]c3n2)c(C)c1` [Example 150, 4-(4-((1r,4r)-4-hydroxy-4-methylcyclohexyloxy)-5-(2-methylbenzo[d]oxazol-6-yl)-7H-pyrrolo[2,3-d]pyrimidin-2-ylamino)-N,3-dimethylbenzamide], the figure is below 100 nM; as for `CNC(=O)c1ccc(Nc2nc(OC3CCCC3)c3c(-c4ccc(O)c(C)c4)c[nH]c3n2)c(OC)c1` [Example 43, 4-(4-(cyclopentyloxy)-5-(4-hydroxy-3-methylphenyl)-7H-pyrrolo[2,3-d]pyrimidin-2-ylamino)-3-methoxy-N-methylbenzamide], below 100 nM. Consider `CNCCOc1nc(Nc2ccc(C(=O)NC)cc2OC)nc2[nH]cc(-c3ccc4nc(C)oc4c3)c12` [Example 138, 3-methoxy-N-methyl-4-(4-(2-(methylamino)ethoxy)-5-(2-methylbenzo[d]oxazol-6-yl)-7H-pyrrolo[2,3-d]pyrimidin-2-ylamino)benzamide], for which the IC50 lay in the range of 1000 to 10000 nM. The same measure for `Cc1nc2ccc(-c3c[nH]c4nc(Nc5ccc6c(c5)CN(C)C6=O)nc(OC5CCCC5)c34)cc2o1` [Example 244, 5-(4-(cyclopentyloxy)-5-(2-methylbenzo[d]oxazol-6-yl)-7H-pyrrolo[2,3-d]pyrimidin-2-ylamino)-2-methylisoindolin-1-one]: below 100 nM; for `CNC(=O)c1ccc(Nc2nc(OC3CCOCC3)c3c(-c4ccc(O)cc4)c[nH]c3n2)c(Cl)c1` [Example 29, 3-chloro-4-(5-(4-hydroxyphenyl)-4-(tetrahydro-2H-pyran-4-yloxy)-7H-pyrrolo[2,3-d]pyrimidin-2-ylamino)-N-methylbenzamide]: below 100 nM.
